These results are taken from PubChem BioAssay AID179 (DTP/NCI, 2004).

The subject of the assay is CEM cells HIV-1 protection, formazan growth assay. As to the kind of experiment: NCI AIDS Antiviral Assay. Particulars: for IC50: measured here: growth of uninfected CEM cells. In outline:
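Category rules: moderately active means at least 50% protection on retest, and confirmed active means 100% protection reproducibly. The underlying data came from a formazan growth assay in HIV-1-infected CEM cells.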

Active and inactive are the calls of the source.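 How the source made its calls: active means compounds giving half or more protection of infected cells from virus-caused growth loss, again on retest; inactive means the rest.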 Where only a bound is given, the exact number is not on record here.

Consider `COc1ccc2c(c1)OC[C@@H]1c3cc(NC(=O)c4ccccc4)c(OCc4ccccc4)cc3N(S(=O)(=O)c3ccccc3)[C@H]21`, for which the EC50 was over 200 µM and the IC50 was over 200 µM. Regarding `O=C1CCC2c3[nH]c4ccccc4c3CCN12` (stereo unspecified), the EC50 is over 200 µM and the IC50 came to 186 µM. The corresponding values for `CN1Cc2c(ccc3c2OCO3)C2C(O)Cc3cc4c(cc3C21)OCO4` (stereo unspecified) are over 0.912 µM and 0.234 µM. The corresponding values for `O/N=C(\C(=N/O)Nc1ccc(-c2ccc(NC(=N/O)/C(=N\O)c3ccccc3)cc2)cc1)c1ccccc1` are over 37.2 µM and 30.9 µM. Turning to `COc1cc(Br)c(CC2=NCCc3cc(OC)c(OC)cc32)cc1OC`, the outcome was inactive.

For `Nc1ccc(O)c(C(=O)[O][Sn]([c]2ccccc2)([c]2ccccc2)[c]2ccccc2)c1`, the EC50 is over 2 µM and the IC50 turned out to be 0.129 µM. The corresponding values for `CC1=NN=C(N)NC1=CC(Sc1ccc(Cl)cc1)c1c(O)ccc2ccccc12` (stereo unspecified) are over 200 µM and 11.2 µM.

For the molecule `COc1c2occc2cc2ccc(=O)oc12`, the EC50 was over 83.2 µM and the IC50 was over 83.2 µM. Take `O=C(/C=C\c1ccc(/C=C/C(=O)Nc2cccc(C3=NCCCN3)c2)cc1)Nc1cccc(C2=NCCCN2)c1`: the EC50 is over 44.7 µM and the IC50 came to 8.13 µM. In the same order, the values of `Cc1cc2oc(-c3ccccc3)c(C)c(=O)c2c2c1OC(C)(C)S2` are over 39.8 µM and over 39.8 µM. As for `CCOC(=O)C(Cc1c(C=O)[nH]c2ccccc12)(NC(=O)c1ccccc1)C(=O)OCC`, the result was inactive.

In the case of `CSCCCS/C1=C/CCCCCCCCCC1`, the EC50 is over 200 µM and the IC50 was over 200 µM. For `CCN(CC)CC(C(C)=O)C(c1ccccc1)c1c(O)c2ccccc2oc1=O` (stereo unspecified), the EC50 is over 43.7 µM and the IC50 was over 43.7 µM. `S=C1SC2(CCCC2)NC2=C1CCC2`: the EC50 was over 126 µM and the IC50 was over 126 µM. On to `O=C1/C(=C/c2ccccc2)CCCc2ccccc21`, for which the EC50 is over 200 µM and the IC50 was determined as 21.4 µM. The corresponding values for `C=CCN1C(=O)CS/C1=N\NC(=O)CSc1nc2ccccc2c(=O)n1CC` are over 200 µM and over 200 µM.

On to `COc1ccc(C(SCC(N)C(=O)O)(c2ccc(OC)cc2)c2ccc(OC)cc2)cc1` (stereo unspecified), for which the EC50 is over 200 µM and the IC50 was 31.6 µM.

With `COC1=CC(=O)O/C1=C(\OC)C1OC1c1ccccc1` (stereo unspecified), the EC50 was 5.37 µM and the IC50 is 97.7 µM. The corresponding values for `Cc1c(C)c(C)c2c(c1C)CC2=O` are over 77.6 µM and over 77.6 µM. The corresponding values for `O=C(CCN(C(=O)O)S(=O)(=O)c1ccc(NC(=O)c2ccccc2)cc1)Nc1ccccc1` are over 537 µM and over 537 µM. In the same order, the values of `N#Cc1c(Sc2ccccc2N)cccc1Sc1ccccc1N` are over 200 µM and over 200 µM. As for `COC(=O)c1ccccc1/C=C1\Cc2ccc3c(c2C1=O)CCCC3`, the EC50 is over 200 µM and the IC50 is over 200 µM.

As for `Cc1c(C#N)c2ccccc2c2nc3ccccc3n12`, the EC50 was over 200 µM and the IC50 came out at 129 µM.

Take `CCOC1=C(c2ccccc2)N2CCCCC2O1` (stereo unspecified): the EC50 was over 200 µM and the IC50 was determined as 2.57 µM. Take `O=c1c2ccccc2oc2nc3cc(Cl)ccc3n12`: the EC50 was over 200 µM and the IC50 was over 200 µM.

As to `CCCC(C)C(N)=Nc1ccc(Cl)c(Cl)c1` (stereo unspecified), the EC50 was over 200 µM and the IC50 turned out to be 45.7 µM. Take `CC12CCCCC1CC(=O)/C(=C\O)C2` (stereo unspecified): the EC50 was over 200 µM and the IC50 was found to be 77.6 µM. The corresponding values for `CC1=C(C(=O)NCc2ccccc2)C(c2ccc(C3C(C(=O)NCc4ccccc4)=C(C)NC(C)=C3C(=O)NCc3ccccc3)cc2)C(C(=O)NCc2ccccc2)=C(C)N1` are over 12 µM and 7.94 µM.

In the case of `COc1cc2oc(=O)cc(C)c2c(OC)c1OC`, the EC50 is over 200 µM and the IC50 is over 200 µM.

The EC50 is the concentration giving half of the maximal effect. The term IC50 denotes the concentration that gives 50% inhibition. A low value points to higher potency.
